Reference: article PMC11077815, “Synthesis and antitumor activity of dolutegravir derivatives bearing 1,2,3-triazole moieties” (BMC Chemistry, 2024)

Legend:
PC-9 [1] = experiment: Plate clone formation assay, PC-9; type: cell-based, Human; conditions: PC9, 0, 2, 4, 8, 16 and 32 µM, 48 h
Protocol: (§1) The plate clone formation experiments were also carried outto further confirm the effects of dolutegravir derivatives on cell proliferation. Compounds 9e and 9p with different concentrations (0, 2, 4, 8, 16 and 32 µM) were added to the cells.
(§2) PC-9 and H460 cells were seeded into 6-well plates at a density of 100–500 cells/well. After 10 days culture, cells were added with 9e or 9p at different concentrations (0, 2 µM, 4 µM, 8 µM, 16 µM, 32 µM) for 48 h. Then cells were fixed by 4% paraformaldehyde and stained by Giemsa dye. An optical microscope was used to photograph cells and count the clone numbers.

PC-9 [2] = experiment: Apoptosis assay (Annexin V-FITC/PI flow cytometry), PC-9; type: cell-based, Human; conditions: 48 h
Protocol: Further, the effects of 9e and 9p on the apoptosis of tumor cells were studied to get details of the suppression of cell proliferation caused by these compounds. PC-9 and H460 cells treated with different concentrations of 9e or 9p were stained with Annexin V-FITC and PI, and the numbers of apoptosis cells were analyzed by the flow cytometry.
PC-9 and H460 cells were cultured in 6-well plates with a density of 3 × 10^5 cells/well. Different concentrations of 9e or 9p were added to cells for 48 h respectively. The concentrations were 0, 2, 4, and 8 µM for PC-9 cells and 0, 4, 8 and 16 µM for H460 cells. After treatment, Annexin V-FITC Apoptosis Detection Kit was used to determine the apoptotic ratio and FlowJo software v10 was used to analyze of the results.

Caspase3 = experiment: Western blot of Caspase3 in PC-9 cells; type: cell-based, Human; conditions: PC-9, 0, 2, 4, 8 µM, 48 h
Description: (§3) To determine the role of compounds 9e and 9p on regulating the development of cell proliferation, expressions of key proteins which were involved in cell growth progresses such as autophagy, apoptosis, cell cycle and DNA damage were examined. Ubiquitin like molecule light chain 3 (LC3) is a key marker of autophagy. […] Caspase3, which is one of the key proteins in regulating apoptosis, however, was not changed in tumor cells after treated with 9e or 9p. Cell cycle regulation proteins such as CyclinD, CyclinE or β-catenin were also not affected when PC-9 was treated with 9e or 9p. Further, H2AX variant histone (γ-H2AX), which was responsible for DNA damage, was also not affected when PC-9 were treated with 9e or 9p.
(§4) Protein expression levels were measured by western blot. PC-9 cells were cultured in 12-well plates and different concentrations (0, 2, 4, 8µM) of 9e and 9p were added for 48 h. Proteins were extracted from whole cells using radioimmunoprecipitation assay (RIPA). Buffer containing protease/phosphatase inhibitor cocktail (CST). Sodium dodecyl sulfate (10-15%) polyacrylamide gel electrophoresis and nitrocellulose membranes (Millipore) were used to separate and collect proteins. Antibodies used include, LC3 (3868s, CST), Caspase3 (9662, CST), cyclin D (2922s, CST), cyclin E (20808s, CST), γ-H2AX (9718s, CST), and β-actin (4967s, CST).

H460 [3] = experiment: Plate clone formation assay, H460; type: cell-based, Human; conditions: H460, 0, 2, 4, 8, 16 and 32 µM, 48 h
Protocol: as §1, §2

PC-9 [4] = experiment: Cellular ROS measurement (DCFH-DA), PC-9; type: cell-based, Human; conditions: PC-9, 5 µM and 10 µM, 24 h, DCFH-DA staining
Protocol: (§5) Reactive oxygen species could induce cell death and suppress cell growth and proliferation. To assess the role of compounds 9e and 9p in ROS generation, different cancer cell lines were treated with 9e or 9p for 24 h. DCFDA was used to stain cells and ROS was detected with fluorescent microscope.
(§6) PC-9 and H460 cells were cultured in 96-well plates in a density of 5 × 10^3 cells/well. Different concentrations (0, 5 and 10 µM) of 9e or 9p were added to cells respectively for 24 h. After treatment, cells were stimulated with 10 µM DCFH-DA for 30 min at 37 °C, then observed and photographed using a fluorescent microscope.

LC3 = experiment: Western blot of LC3 in PC-9 cells; type: cell-based, Human; conditions: PC-9, 0, 2, 4, 8 µM, 48 h
Description: as §3, §4

[5] = test system: HRM (Human Renal Mesangial) cell line; experiment: CCK8 cell viability assay, HRM normal cells (toxicity control); type: cell-based; conditions: for IC50: HRM normal human cells, 48 h, CCK8, mean ± SE
Protocol: Based on these preliminary results, compounds 9c, 9e, 9f, 9i, 9k, 9 L, 9p, 9q, 9t, 9u, 9v, 9w, 10c, 10e which were effective to most of the cell lines were chosen for the measurement of the half-maximal inhibitory concentration (IC50). […] HRM (Human Renal Mesangial) cell line was used as a control to study the toxicity of these compounds against normal human cells.
(§7) CCK8 assay was used to measure cell viability. Cells with a density of 1 × 10^4 cells/well were seeded on the 96-well plates. After adhesion, cells were treated with different diluted compounds or vehicle control DMSO and continue cultured for 48 h. Then, CCK8 reagent was added for one hour incubation at 37 °C with 5% of CO2. Absorbance was measured using a microplate spectrophotometer (Thermo) at 450 nm. The ratio of cell viability of control was taken as 100%. […] Then IC50 of the compounds were investigated using the prism statistical software.

A549 = experiment: CCK8 cell viability assay, A549; type: cell-based, Human; conditions: for Cell viability (100%): A549, 20 µM, 48 h, CCK8, control = 100%; for IC50: A549, 48 h, CCK8, mean ± SE
Protocol: as §7, with “At first, CCK8 assay was carried out to evaluate the anti-proliferative activity of dolutegravir-1,2,3-triazole derivatives against different cancer cell lines. The results of cell viability of three lung cancer cell lines A549, PC-9 and H460 in the presence of compounds 9 and 10 are summarized in Table 2. Cells were treated with different compounds at the concentration of 20 µM for 48 h. […] Human lung cancer cell lines A549, PC-9 and H460 were all obtained from ATCC. Cells were cultured in DMEM or RPMI 1640 medium containing 10% FBS and 1% penicillin/streptomycin at 37 °C with a 5% CO2-humidified atmosphere. CCK8 assay” for “CCK8 assay”

CyclinE = experiment: Western blot of CyclinE in PC-9 cells; type: cell-based, Human; conditions: PC-9, 0, 2, 4, 8 µM, 48 h
Description: as §3, §4

H460 [6] = experiment: Cellular ROS measurement (DCFH-DA), H460; type: cell-based, Human; conditions: H460, 5 µM and 10 µM, 24 h, DCFH-DA staining
Protocol: as §5, §6

γ-H2AX = experiment: Western blot of γ-H2AX in PC-9 cells; type: cell-based, Human; conditions: PC-9, 0, 2, 4, 8 µM, 48 h
Description: as §3, §4

SMILES | plate clone formation (cell proliferation) (PC-9 [1]) | cell apoptosis (PC-9 [2]; PC-9, 2 µM or 4 µM) | cell apoptosis (PC-9 [2]; PC-9, 8 µM) | Caspase3 expression (Caspase3) | plate clone formation (cell proliferation) (H460 [3]) | ROS generation (PC-9 [4]) | expression of LC3 (LC3) | IC50 [5] [µM] | Cell viability (100%) (A549) [%] | IC50 (A549) [µM] | CyclinE expression (CyclinE) | ROS generation (H460 [6]) | γ-H2AX expression (γ-H2AX) | toxicity against normal cells ([5]; HRM cells)
COc1c2n(cc(C(=O)Nc3cccc(-c4cn(-c5cccc(C(F)(F)F)c5)nn4)c3)c1=O)C[C@@H]1OCC[C@@H](C)N1C2=O [Compound 9p] | anti-proliferative activity against cell lines PC9 and H460 in a dose-dependent manner | little influence | significant effects on cell apoptosis | not changed | anti-proliferative activity against cell lines PC9 and H460 in a dose-dependent manner | significantly increased | significantly increased | 35.6 ± 10.8 | 10.85 | 13 ± 0.32 | not affected | significantly increased | not affected | 
COc1c2n(cc(C(=O)Nc3cccc(-c4cn(-c5cccc([N+](=O)[O-])c5C)nn4)c3)c1=O)C[C@@H]1OCC[C@@H](C)N1C2=O [Compound 9e] | anti-proliferative activity against cell lines PC9 and H460 in a dose-dependent manner | little influence | significant effects on cell apoptosis | not changed | anti-proliferative activity against cell lines PC9 and H460 in a dose-dependent manner | significantly increased | significantly increased | > 50 | 9.14 | 8.72 ± 0.11 | not affected | significantly increased | not affected | low toxicity against normal cells
